Source: US20210330611A1, “THERAPY FOR NEUROLOGICAL DISEASES/DISORDERS” (priority 2020, published 2021)
Counter-ions that a name gives are not always drawn. Like-named read-outs stand apart in the source and are kept apart here.

Tests used:
Assay type in all cases: cell-based, rat
[1] = system: LPS-induced microglia activation; test: Image-based assay of LPS-induced microglia activation (HTS and dose response)
[2] = system: fibrin- and LPS-induced microglia activation; test: cells; conditions: for Activity: Table 7, fib = fibrin, LPS, tox = toxicity
[3] = system: fibrin-induced microglia activation; test: Image-based assay of fibrin-induced microglia activation (HTS and dose response); conditions: for inhibition at 10 µM: read-out: Fibrin % inhibition
[4] = Rattus norvegicus, Microglia, primary microglia HTS, LPS stimulation, compounds at 10 μM; read-out: LPS % inhibition
[5] = quadrant by fibrin and LPS inhibition, HTS at 10 μM
[6] = Rattus norvegicus, Microglia, primary microglia HTS, fibrin stimulation, compounds at 10 μM
[7] = Rattus norvegicus, Microglia, 48 h, read-out: LPS % inhibition
[8] = Rattus norvegicus, Microglia, read-out: LPS % inhibition
[9] = primary microglia HTS, LPS stimulation, compounds at 10 μM
[10] = classification by fibrin and LPS inhibition, HTS at 10 μM
[11] = primary microglia HTS, fibrin stimulation, compounds at 10 μM
[12] = Rattus norvegicus, Microglia, Table 7; read-out: LPS_IC50
[13] = Rattus norvegicus, Microglia, Table 7, read-out: fib_IC50
[14] = Rattus norvegicus, Microglia, 48 h, primary microglia HTS, LPS stimulation; increased cell size (>800 μm^2) as marker of activation; read-out: LPS % inhibition
[15] = quadrant by fibrin and LPS inhibition in HTS of 1907 compounds
[16] = Rattus norvegicus, Microglia, primary microglia HTS, fibrin stimulation, increased cell size (>800 μm^2) as marker of activation

For `O=C1O[C@H]([C@@H](O)CO)C(O)=C1O` [Ascorbic Acid], which inhibition at 10 µM [1, 4] is on record?
Its inhibition at 10 µM is 12%.

What about the “Quadrant (FIG. 5b)” value [2, 5] of the same molecule?
The value was “Q4”.

What about the inhibition at 10 µM [3, 6] of the same molecule?
The inhibition at 10 µM was -8%.

How did the inhibition at 10 µM ([1]; Rattus norvegicus, Microglia, 48 h; read-out: LPS % inhibition) turn out when `C[C@]12CC[C@H](O)CC1=CC[C@@H]1[C@@H]2CC[C@]2(C)C(=O)CC[C@@H]12` [Prasterone] was run?
The inhibition at 10 µM was 15%.

What about the “Quadrant (FIG. 5b)” value ([2]; classification by fibrin and LPS inhibition in HTS) of the same molecule?
The value was “Q4”.

What about the inhibition at 10 µM ([3]; Rattus norvegicus, Microglia, primary microglia HTS, fibrin stimulation, cell size >800 μm2 as marker of activation) of the same molecule?
Its inhibition at 10 µM is 1%.

Which results are given for `CCCNCC(O)COc1ccccc1C(=O)CCc1ccccc1` (stereo not drawn) [Propafenone]?
inhibition at 10 µM [1, 7]: 21%; Quadrant (FIG. 5b) [2]: Q4; inhibition at 10 µM ([3]; Rattus norvegicus, Microglia): 16%

Which inhibition at 10 µM [1, 4] does the source give for `O=C(O)COC(=O)Cc1ccccc1Nc1c(Cl)cccc1Cl` [Aceclofenac] here?
The inhibition at 10 µM was 8%.

What about the “Quadrant (FIG. 5b)” value [2, 5] of the same molecule?
The value was “Q4”.

And the inhibition at 10 µM [3, 6]?
Its inhibition at 10 µM is -2%.

`Cc1cc(NS(=O)(=O)c2ccc(N)cc2)no1` [Sulfamethoxazole] was tested. Which inhibition at 10 µM [1, 8] did it give?
Its inhibition at 10 µM is 17%.

And the “Quadrant (FIG. 5b)” value [2]?
The value was “Q4”.

What about the inhibition at 10 µM ([3]; Rattus norvegicus, Microglia) of the same molecule?
Its inhibition at 10 µM is -17%.

`C=C(C)[C@H]1CC=C(C)CC1` [D-limonene] was tested. Which LPS % inhibition [1, 9] did it give?
Its LPS % inhibition is 11%.

And the “Quadrant (FIG. 5b)” value [2, 10]?
Its value is “Q4”.

And the Fibrin % inhibition [3, 11]?
Its Fibrin % inhibition is −19%.

Which results are given for `O=C(O)c1nc2cc(Cl)c(Cl)cc2nc1O`?
IC50 [1, 12]: ≥ 5 µM; Activity [2]: fib/LPS; IC50 [3, 13]: 2.65 µM

How did the inhibition at 10 µM [1, 14] turn out when `C#CC1(O)CC[C@H]2[C@@H]3CCC4=CC(=O)CC[C@@H]4[C@H]3CC[C@@]21CC` (stereo partly drawn) [Norgestrel] was run?
The inhibition at 10 µM was 22%.

What about the “Quadrant (FIG. 5b)” value [2, 15] of the same molecule?
The value was “Q4”.

What about the inhibition at 10 µM [3, 16] of the same molecule?
The inhibition at 10 µM was 4%.

Which results are given for `Cn1nnnc1SCC1=C(C(=O)O)N2C(=O)[C@@H](NC(=O)[C@H](O)c3ccccc3)[C@H]2SC1` [cefamandole sodium]?
IC50 [1, 12]: 0.002 µM; Activity [2]: fib/LPS; IC50 [3, 13]: 0.052 µM

How did the LPS % inhibition [1] turn out when `CN1[C@@H]2C[C@@H](OC(=O)[C@H](CO)c3ccccc3)C[C@H]1[C@@H]1O[C@@H]12` [Scopolamine Hydrobromide] was run?
The LPS % inhibition was 3%.

And the “Quadrant (FIG. 5b)” value [2]?
Its value is “Q4”.

And the Fibrin % inhibition [3]?
The Fibrin % inhibition was 5%.

What does the source list for `CNCCC(Oc1ccc(C(F)(F)F)cc1)c1ccccc1.Cl` (stereo not drawn) [Fluoxetine Hydrochloride, Fluoxetine]?
LPS % inhibition [1]: 65%; Quadrant (FIG. 5b) [2]: Q1; Fibrin % inhibition [3]: 46%

What does the source list for `NCCCC(O)(P(=O)(O)O)P(=O)(O)O` [Alendronic acid]?
inhibition at 10 µM [1, 8]: 18%; Quadrant (FIG. 5b) [2]: Q4; inhibition at 10 µM ([3]; Rattus norvegicus, Microglia): 5%

Which results are given for `O=C(CCBr)N1CCN(C(=O)CCBr)CC1` [Pipobroman]?
inhibition at 10 µM [1, 7]: 0%; Quadrant (FIG. 5b) [2]: Q4; inhibition at 10 µM ([3]; Rattus norvegicus, Microglia): -28%

For `CN(N=O)C(=O)N[C@@H](C=O)[C@@H](O)[C@H](O)[C@H](O)CO` [Streptozocin], which inhibition at 10 µM [1, 8] is on record?
The inhibition at 10 µM was 19%.

What about the “Quadrant (FIG. 5b)” value [2] of the same molecule?
The value was “Q4”.

And the inhibition at 10 µM ([3]; Rattus norvegicus, Microglia)?
The inhibition at 10 µM was -30%.

How did the inhibition at 10 µM [1, 4] turn out when `CCN1C(=O)NC(c2ccccc2)C1=O` (stereo not drawn) [Ethotoin] was run?
Its inhibition at 10 µM is 12%.

And the “Quadrant (FIG. 5b)” value [2, 10]?
Its value is “Q4”.

What about the inhibition at 10 µM [3, 6] of the same molecule?
The inhibition at 10 µM was -36%.

`Nc1nc2ccc(OC(F)(F)F)cc2s1` [Riluzole] was tested. Which inhibition at 10 µM [1, 7] did it give?
Its inhibition at 10 µM is 7%.

And the “Quadrant (FIG. 5b)” value [2]?
Its value is “Q4”.

And the inhibition at 10 µM ([3]; Rattus norvegicus, Microglia)?
Its inhibition at 10 µM is 0%.

With `CN(C)c1ccc(O)c2c1C[C@H]1C[C@H]3[C@H](N(C)C)C(O)=C(C(N)=O)C(=O)[C@@]3(O)C(O)=C1C2=O` [Minocycline] as the molecule, how does the inhibition at 10 µM [1, 14] read?
The inhibition at 10 µM was 16%.

What about the “Quadrant (FIG. 5b)” value [2, 15] of the same molecule?
Its value is “Q4”.

And the inhibition at 10 µM [3, 16]?
Its inhibition at 10 µM is -6%.

Which LPS % inhibition [1, 9] does the source give for `CC(=O)Oc1c(C)c(C)c2c(c1C)CCC(C)(CCCC(C)CCCC(C)CCCC(C)C)O2` (stereo not drawn) [Alpha-tochopheryl Acetate] here?
Its LPS % inhibition is 8%.

And the “Quadrant (FIG. 5b)” value [2, 5]?
Its value is “Q4”.

What about the Fibrin % inhibition [3, 11] of the same molecule?
Its Fibrin % inhibition is 22%.

Which inhibition at 10 µM [1, 14] does the source give for `C[C@]12C=CC(=O)C=C1CC[C@@H]1[C@@H]2[C@@H](O)C[C@@]2(C)[C@H]1CC[C@]2(O)C(=O)CO` [Prednisolone, reference compound] here?
Its inhibition at 10 µM is 100%.

What about the IC50 [1, 12] of the same molecule?
The IC50 was 0.002 µM.

What about the inhibition at 10 µM [1, 4] of the same molecule?
The inhibition at 10 µM was 87%.

And the “Quadrant (FIG. 5b)” value ([2]; Table 2, screen at 10 μM)?
Its value is “Q2”.

What about the Activity [2] of the same molecule?
Its Activity is “fib/LPS”.

What about the “Quadrant (FIG. 5b)” value [2, 15] of the same molecule?
The value was “Q2”.

What about the “Quadrant (FIG. 5b)” value [2, 5] of the same molecule?
Its value is “Q2”.

What about the IC50 [3, 13] of the same molecule?
Its IC50 is 0.002 µM.

What about the inhibition at 10 µM [3, 6] of the same molecule?
The inhibition at 10 µM was 97%.

What about the inhibition at 10 µM [3, 16] of the same molecule?
The inhibition at 10 µM was 114%.

Which IC50 ([1]; LPS-induced microglia activation, dose response; read-out: LPS IC50 (uM) (Suppl. Table 7)) does the source give for “Medroxyprogesterone [reference compound]” here?
Its IC50 is 8 µM.

What about the IC50 ([1]; Table 1; dose response 0.001-20 μM, triplicates, primary rat microglia, 48 h; read-out: LPS IC50) of the same molecule?
Its IC50 is 8 µM.

What about the IC50 ([1]; dose response, LPS-induced microglia activation; read-out: LPS IC50) of the same molecule?
The IC50 was 8 µM.

And the LPS % inhibition ([1]; primary microglia HTS, LPS stimulation; increased cell size (>800 μm^2) as marker of activation)?
Its LPS % inhibition is 6%.

And the “Quadrant (FIG. 5b)” value ([2]; HTS of 1907 compounds, quadrant by fibrin and LPS inhibition)?
Its value is “Q3”.

And the “Quadrant (FIG. 5b)” value ([2]; Table 1, screen at 10 μM)?
The value was “Q3”.

And the “Quadrant (FIG. 5b)” value [2, 15]?
Its value is “Q3”.

What about the IC50 ([3]; Table 1, dose response 0.001-20 μM, triplicates, primary rat microglia, 48 h, read-out: Fibrin IC50) of the same molecule?
The IC50 was over 20 µM.

What about the IC50 ([3]; dose response, fibrin-induced microglia activation, read-out: Fibrin IC50) of the same molecule?
Its IC50 is over 20 µM.

What about the IC50 ([3]; fibrin-induced microglia activation, dose response, read-out: Fibrin IC50 (uM) (Suppl. Table 7)) of the same molecule?
The IC50 was over 20 µM.

And the Fibrin % inhibition ([3]; primary microglia HTS, fibrin stimulation, increased cell size (>800 μm^2) as marker of activation)?
The Fibrin % inhibition was 61%.
